Laboratory results taken from ChEMBL document CHEMBL5653615 (J Biol Chem, 2013).

What was measured:
[1] = target: CDK3/Cyclin E (Homo sapiens) (UniProt P24864+Q00526); assay: Inhibition of human CDK3/cyclin E at 18.6 nM by HotSpot assay relative to control; format: protein-complex assay
[2] = target: Casein kinase I isoform alpha (Homo sapiens) (UniProt P48729); assay: Inhibition of human CK1a1 at 18.6 nM by HotSpot assay relative to control
[3] = target: Casein kinase II subunit alpha' (Homo sapiens) (UniProt P19784); assay: Inhibition of human CK2a2 at 18.6 nM by HotSpot assay relative to control
[4] = target: T1, Ephrin type-A receptor 1 (Homo sapiens) (UniProt P21709); assay: Inhibition of human EPHA1 at 18.6 nM by HotSpot assay relative to control
T1 sequence (whole entry): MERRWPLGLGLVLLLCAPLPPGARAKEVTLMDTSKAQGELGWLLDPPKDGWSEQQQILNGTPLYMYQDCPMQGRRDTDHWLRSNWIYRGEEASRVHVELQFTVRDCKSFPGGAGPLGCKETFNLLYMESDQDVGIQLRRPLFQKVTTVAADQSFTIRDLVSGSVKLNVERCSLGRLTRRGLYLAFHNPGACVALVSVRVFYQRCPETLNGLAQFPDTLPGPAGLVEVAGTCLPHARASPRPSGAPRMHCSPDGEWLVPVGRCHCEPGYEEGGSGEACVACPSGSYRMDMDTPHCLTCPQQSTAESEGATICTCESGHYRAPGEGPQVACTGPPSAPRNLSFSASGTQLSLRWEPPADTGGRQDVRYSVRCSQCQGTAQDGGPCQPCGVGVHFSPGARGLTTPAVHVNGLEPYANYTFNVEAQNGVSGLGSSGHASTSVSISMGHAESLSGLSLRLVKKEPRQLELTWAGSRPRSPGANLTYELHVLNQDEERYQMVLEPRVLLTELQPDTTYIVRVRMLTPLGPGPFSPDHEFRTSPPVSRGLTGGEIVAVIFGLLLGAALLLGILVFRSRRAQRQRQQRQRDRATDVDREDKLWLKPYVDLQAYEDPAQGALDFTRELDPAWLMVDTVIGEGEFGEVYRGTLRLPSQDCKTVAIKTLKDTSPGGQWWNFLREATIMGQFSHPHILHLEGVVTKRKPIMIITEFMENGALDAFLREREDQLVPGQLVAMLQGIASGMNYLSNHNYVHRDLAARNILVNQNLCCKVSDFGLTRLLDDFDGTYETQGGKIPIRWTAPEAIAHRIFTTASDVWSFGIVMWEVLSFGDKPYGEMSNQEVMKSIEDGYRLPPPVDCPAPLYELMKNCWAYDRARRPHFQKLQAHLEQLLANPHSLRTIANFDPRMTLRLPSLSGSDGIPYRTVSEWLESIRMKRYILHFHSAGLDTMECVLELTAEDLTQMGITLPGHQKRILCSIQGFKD

[5] = target: T2, Mitogen-activated protein kinase kinase kinase kinase 2 (Homo sapiens) (UniProt Q12851); assay: Inhibition of human GCK at 18.6 nM by HotSpot assay relative to control
T2 sequence (whole entry): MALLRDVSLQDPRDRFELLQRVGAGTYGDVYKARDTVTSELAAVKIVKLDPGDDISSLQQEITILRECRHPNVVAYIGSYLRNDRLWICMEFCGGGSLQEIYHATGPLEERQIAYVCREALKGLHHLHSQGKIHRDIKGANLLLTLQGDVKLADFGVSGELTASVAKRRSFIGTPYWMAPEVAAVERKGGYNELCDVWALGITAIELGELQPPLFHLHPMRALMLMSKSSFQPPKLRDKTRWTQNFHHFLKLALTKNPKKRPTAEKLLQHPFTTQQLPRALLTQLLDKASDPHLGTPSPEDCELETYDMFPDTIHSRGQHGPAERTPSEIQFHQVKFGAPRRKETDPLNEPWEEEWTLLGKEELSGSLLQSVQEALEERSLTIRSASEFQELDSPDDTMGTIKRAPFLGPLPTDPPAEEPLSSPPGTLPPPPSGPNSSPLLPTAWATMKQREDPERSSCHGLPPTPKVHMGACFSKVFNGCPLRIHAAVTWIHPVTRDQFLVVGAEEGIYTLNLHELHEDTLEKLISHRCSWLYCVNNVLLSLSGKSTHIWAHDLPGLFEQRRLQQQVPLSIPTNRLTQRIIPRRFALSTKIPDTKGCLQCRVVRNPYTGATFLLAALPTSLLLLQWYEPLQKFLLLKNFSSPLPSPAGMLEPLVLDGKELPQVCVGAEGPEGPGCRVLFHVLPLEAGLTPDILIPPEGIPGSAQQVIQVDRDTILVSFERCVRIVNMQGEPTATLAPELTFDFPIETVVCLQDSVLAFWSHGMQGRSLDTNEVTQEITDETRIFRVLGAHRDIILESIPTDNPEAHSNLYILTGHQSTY

[6] = target: MAP/microtubule affinity-regulating kinase 3 (Homo sapiens) (UniProt P27448); assay: Inhibition of human MARK3 at 18.6 nM by HotSpot assay relative to control
[7] = target: Mitogen-activated protein kinase kinase kinase 7 (Homo sapiens) (UniProt O43318); assay: Inhibition of human TAK1 at 18.6 nM by HotSpot assay relative to control
[8] = target: Calcium/calmodulin-dependent protein kinase type II subunit beta (Homo sapiens) (UniProt Q13554); assay: Inhibition of human CAMK2b at 1.82 nM by HotSpot assay relative to control
[9] = target: Tyrosine-protein kinase CSK (Homo sapiens) (UniProt P41240); assay: Inhibition of human CSK at 1.82 nM by HotSpot assay relative to control
[10] = target: Homeodomain-interacting protein kinase 1 (Homo sapiens) (UniProt Q86Z02); assay: Inhibition of human HIPK1 at 1.82 nM by HotSpot assay relative to control
[11] = target: Serine/threonine-protein kinase PAK 2 (Homo sapiens) (UniProt Q13177); assay: Inhibition of human PAK2 at 1.82 nM by HotSpot assay relative to control
[12] = target: Serine/threonine-protein kinase N1 (Homo sapiens) (UniProt Q16512); assay: Inhibition of human PRK1 at 1.82 nM by HotSpot assay relative to control
Chain of Serine/threonine-protein kinase N1 (Homo sapiens) (Q16512 2-942 limits assumed): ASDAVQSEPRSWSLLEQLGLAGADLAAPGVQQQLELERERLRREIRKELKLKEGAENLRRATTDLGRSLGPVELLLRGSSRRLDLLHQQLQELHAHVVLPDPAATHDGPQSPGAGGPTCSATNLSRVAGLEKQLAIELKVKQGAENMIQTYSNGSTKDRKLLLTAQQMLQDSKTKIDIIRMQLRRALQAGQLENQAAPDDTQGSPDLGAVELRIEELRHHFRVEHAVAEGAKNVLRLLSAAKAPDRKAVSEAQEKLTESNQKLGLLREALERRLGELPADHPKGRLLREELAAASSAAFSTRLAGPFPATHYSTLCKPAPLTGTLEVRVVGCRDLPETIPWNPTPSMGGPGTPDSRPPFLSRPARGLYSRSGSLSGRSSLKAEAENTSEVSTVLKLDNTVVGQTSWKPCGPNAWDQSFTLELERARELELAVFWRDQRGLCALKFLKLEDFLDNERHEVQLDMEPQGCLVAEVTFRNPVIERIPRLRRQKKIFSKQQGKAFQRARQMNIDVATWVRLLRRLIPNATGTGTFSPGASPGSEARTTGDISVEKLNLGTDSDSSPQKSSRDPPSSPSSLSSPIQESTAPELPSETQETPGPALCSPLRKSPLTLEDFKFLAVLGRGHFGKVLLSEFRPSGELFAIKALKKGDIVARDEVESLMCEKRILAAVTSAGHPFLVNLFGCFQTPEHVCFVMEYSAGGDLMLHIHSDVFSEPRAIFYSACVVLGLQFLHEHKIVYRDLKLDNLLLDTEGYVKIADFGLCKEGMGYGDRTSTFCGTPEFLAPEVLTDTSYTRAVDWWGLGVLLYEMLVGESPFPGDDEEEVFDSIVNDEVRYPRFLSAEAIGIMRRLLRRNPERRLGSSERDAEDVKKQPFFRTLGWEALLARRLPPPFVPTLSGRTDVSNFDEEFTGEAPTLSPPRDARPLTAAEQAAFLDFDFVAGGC

Chain of Calcium/calmodulin-dependent protein kinase type II subunit beta (Homo sapiens) (Q13554 whole entry): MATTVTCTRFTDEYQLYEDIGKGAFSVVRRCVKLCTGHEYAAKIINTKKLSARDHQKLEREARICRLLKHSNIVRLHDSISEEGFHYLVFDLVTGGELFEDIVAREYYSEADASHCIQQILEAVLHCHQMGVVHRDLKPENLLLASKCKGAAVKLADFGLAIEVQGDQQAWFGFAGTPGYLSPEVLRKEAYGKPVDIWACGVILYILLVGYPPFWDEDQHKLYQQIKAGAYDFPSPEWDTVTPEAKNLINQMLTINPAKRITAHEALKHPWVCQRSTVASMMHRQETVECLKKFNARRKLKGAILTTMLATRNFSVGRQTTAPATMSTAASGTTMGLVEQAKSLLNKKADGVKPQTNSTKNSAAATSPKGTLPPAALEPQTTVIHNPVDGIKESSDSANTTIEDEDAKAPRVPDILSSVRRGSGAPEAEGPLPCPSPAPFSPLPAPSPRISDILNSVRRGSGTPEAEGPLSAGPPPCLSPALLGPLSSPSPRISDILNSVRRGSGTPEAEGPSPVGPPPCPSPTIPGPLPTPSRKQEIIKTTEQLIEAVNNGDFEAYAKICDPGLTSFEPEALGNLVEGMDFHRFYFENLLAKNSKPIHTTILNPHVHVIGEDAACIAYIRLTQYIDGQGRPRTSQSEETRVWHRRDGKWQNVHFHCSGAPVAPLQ
Chain of Homeodomain-interacting protein kinase 1 (Homo sapiens) (Q86Z02 whole entry, looked up): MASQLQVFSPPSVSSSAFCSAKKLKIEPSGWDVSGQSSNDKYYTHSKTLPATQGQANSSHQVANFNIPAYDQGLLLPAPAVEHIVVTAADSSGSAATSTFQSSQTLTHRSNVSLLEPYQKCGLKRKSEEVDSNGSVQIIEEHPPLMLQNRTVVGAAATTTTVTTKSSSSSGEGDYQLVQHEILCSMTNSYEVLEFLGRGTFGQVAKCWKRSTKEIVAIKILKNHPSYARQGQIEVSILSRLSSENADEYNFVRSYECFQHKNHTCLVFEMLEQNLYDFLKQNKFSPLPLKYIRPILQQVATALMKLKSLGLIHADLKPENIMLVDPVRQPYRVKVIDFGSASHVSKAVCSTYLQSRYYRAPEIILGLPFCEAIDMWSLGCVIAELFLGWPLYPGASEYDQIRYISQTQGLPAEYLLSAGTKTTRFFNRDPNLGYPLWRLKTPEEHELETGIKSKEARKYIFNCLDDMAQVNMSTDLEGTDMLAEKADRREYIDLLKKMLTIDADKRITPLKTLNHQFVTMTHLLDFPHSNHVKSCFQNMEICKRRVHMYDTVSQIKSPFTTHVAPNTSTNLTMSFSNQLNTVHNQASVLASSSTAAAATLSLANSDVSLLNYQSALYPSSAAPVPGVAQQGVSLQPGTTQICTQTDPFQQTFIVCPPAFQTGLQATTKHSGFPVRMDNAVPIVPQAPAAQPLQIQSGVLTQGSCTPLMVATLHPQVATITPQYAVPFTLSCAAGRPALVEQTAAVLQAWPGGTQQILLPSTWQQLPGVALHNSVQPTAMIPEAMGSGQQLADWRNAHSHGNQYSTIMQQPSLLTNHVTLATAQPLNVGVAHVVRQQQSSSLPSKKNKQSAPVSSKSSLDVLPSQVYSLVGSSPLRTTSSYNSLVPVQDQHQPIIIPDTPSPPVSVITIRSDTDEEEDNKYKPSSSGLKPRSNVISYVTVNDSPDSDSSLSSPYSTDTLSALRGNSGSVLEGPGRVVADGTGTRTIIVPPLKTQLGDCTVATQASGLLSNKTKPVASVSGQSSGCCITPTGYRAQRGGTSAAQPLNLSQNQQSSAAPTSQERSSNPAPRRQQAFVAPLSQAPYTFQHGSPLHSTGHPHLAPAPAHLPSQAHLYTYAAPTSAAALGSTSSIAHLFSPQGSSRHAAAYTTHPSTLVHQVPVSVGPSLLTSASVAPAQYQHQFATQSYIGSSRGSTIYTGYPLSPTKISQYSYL
Chain of Serine/threonine-protein kinase PAK 2 (Homo sapiens) (Q13177 whole entry): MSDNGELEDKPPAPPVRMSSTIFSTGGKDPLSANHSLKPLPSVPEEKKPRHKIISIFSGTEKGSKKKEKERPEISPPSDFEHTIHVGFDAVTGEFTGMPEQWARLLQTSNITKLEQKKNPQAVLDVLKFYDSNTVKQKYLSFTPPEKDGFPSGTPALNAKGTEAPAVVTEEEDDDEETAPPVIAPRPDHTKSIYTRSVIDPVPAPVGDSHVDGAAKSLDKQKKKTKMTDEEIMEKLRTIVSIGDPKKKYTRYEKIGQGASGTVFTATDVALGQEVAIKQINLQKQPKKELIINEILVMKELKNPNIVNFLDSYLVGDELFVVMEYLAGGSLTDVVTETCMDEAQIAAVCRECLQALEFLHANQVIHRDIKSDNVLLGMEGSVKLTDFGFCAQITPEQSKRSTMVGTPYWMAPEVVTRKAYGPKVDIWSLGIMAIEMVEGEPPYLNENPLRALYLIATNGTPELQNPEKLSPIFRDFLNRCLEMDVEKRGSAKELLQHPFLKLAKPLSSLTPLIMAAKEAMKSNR
Chain of CDK3/Cyclin E (Homo sapiens) (P24864 whole entry, looked up, canonical isoform): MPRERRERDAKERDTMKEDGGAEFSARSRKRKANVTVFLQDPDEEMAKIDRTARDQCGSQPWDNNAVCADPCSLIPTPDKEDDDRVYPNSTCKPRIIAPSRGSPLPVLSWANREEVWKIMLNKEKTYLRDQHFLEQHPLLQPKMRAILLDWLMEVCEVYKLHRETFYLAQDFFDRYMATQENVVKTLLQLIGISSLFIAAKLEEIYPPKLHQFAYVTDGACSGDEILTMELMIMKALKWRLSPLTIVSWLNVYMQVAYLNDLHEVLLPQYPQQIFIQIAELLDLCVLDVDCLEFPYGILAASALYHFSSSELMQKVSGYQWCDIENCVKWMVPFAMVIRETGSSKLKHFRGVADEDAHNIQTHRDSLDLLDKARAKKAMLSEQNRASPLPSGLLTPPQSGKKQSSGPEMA
Chain of CDK3/Cyclin E (Homo sapiens) (Q00526 whole entry, looked up, canonical isoform): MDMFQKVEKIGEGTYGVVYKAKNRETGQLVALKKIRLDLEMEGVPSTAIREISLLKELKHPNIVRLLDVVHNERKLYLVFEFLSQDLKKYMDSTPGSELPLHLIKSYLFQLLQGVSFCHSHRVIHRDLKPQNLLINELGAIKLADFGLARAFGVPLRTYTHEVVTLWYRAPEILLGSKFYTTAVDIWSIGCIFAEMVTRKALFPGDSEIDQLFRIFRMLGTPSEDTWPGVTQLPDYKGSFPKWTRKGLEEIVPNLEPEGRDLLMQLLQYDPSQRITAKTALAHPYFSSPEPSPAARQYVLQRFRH
Chain of Casein kinase II subunit alpha' (Homo sapiens) (P19784 whole entry, looked up): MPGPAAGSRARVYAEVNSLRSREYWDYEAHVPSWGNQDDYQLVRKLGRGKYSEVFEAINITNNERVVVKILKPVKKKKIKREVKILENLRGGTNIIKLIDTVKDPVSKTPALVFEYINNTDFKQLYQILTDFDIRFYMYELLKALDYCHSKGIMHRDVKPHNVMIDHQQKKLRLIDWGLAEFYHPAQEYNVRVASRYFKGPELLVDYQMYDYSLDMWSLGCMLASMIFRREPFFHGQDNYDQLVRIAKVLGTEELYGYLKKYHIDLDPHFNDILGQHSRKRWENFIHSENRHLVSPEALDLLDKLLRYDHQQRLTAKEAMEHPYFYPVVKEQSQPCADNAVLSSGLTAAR
Chain of Casein kinase I isoform alpha (Homo sapiens) (P48729 2-337 limits assumed): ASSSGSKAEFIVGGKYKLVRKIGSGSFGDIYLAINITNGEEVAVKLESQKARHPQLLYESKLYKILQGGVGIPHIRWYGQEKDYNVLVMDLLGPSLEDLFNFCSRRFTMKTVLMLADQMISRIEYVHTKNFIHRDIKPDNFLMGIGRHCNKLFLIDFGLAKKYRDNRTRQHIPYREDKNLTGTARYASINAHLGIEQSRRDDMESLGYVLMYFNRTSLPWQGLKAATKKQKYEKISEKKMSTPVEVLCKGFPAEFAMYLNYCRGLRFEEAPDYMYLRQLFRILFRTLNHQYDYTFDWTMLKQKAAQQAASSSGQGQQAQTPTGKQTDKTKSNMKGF

inhibition [1] [%]	inhibition [2] [%]	inhibition [3] [%]	inhibition [4] [%]	inhibition [5] [%]	inhibition [6] [%]	inhibition [7] [%]	inhibition [8] [%]	inhibition [9] [%]	inhibition [10] [%]	inhibition [11] [%]	inhibition [12] [%]	Structure (SMILES)
0.86	4.32	38.2	-4.97	1.94	2.43	1.98	–	–	–	–	–	C[C@]1(O)C[C@@H](c2nc(-c3ccc4ccc(-c5ccccc5)nc4c3)c3c(N)nccn32)C1
–	–	–	–	–	–	–	4.93	3.45	-6.64	-8.78	-8.35	C[C@@]1(C(=O)Nc2ccc(F)nc2)CCCN1c1nc(Nc2cc(C3CC3)n[nH]2)c2cccn2n1
